# In patent US12064445B2, “Cytarabine conjugates for cancer therapy” (Biosight Ltd., priority 2015, dated 2024):
# Columns and labels:
# RPMI8226 (Human myeloma) = assay: MTT assay, IC50 in tumor cell lines; assay type: cell-based; conditions: RPMI-8226, RPMI8226, 72 hr
# Description: The effect of Astarabine® on different cell lines was evaluated. Briefly, various cell lines were obtained from ATCC or ECACC. Hematological cells were grown in RPMI medium containing 10-20% FBS and 1% glutamine. Solid tumor cells were grown in DMEM medium containing 10-20% FBS and 1% glutamine. Cells were seeded into 96-well plates, 50,000 cells/ml, 0.2 ml per well. […] The study was conducted in triplicates, PBS was used as control. Plates were incubated for 72 hr at 37° C., 5% CO2. At the end of the exposure period, a MTT assay using the MTT reagent [3-(4,5-dimethylthiazol-2-yl)-2,5-diphenyltetrazolium bromide] was performed. MTT was added to each well at a concentration of 5 mg/ml in a volume of 0.02 ml. Plates were incubated at 37° C. for 3 h. The plates were centrifuged at 3500 rpm for 5 minutes and the supernatant was aspired. The pellets which contained MTT crystals were each dissolved in 0.2 ml DMSO. Absorbance was determined using ELISA reader at a wavelength of 570 nm.
# [1] = Maximal tolerated dose, single dose IP in mice; assay type: in vivo
# Description: Ten weeks of age IRC mice were injected IP with a single dose of Astarabine®, ranging from 1428 to 8271 mg/kg (50 to 300 mg/mice, respectively). Clinical evaluation included mobility observations, food and water consumption. […] After 7 days, the mice were sampled for hematology and biochemistry and then subjected to necropsy.
# [2] = Maximal tolerated dose, single dose IV in mice; assay type: in vivo
# Description: IRC mice were injected once IV with Astarabine® in a dose ranging from 1000 to 8000 mg/kg. The mice were evaluated for 14 days. […] The following parameters: clinical signs, body weight, food consumption and blood analysis, were normal for both male and female mice at this dose, i.e., 8000 mg/kg. […] It is therefore concluded that 8000 mg/kg is the MTD of Astarabine® in mice for a single IV administration.
# Molt-4 cells = assay: Human leukemia hollow fiber model transplanted in nude mice (Molt-4); assay type: in vivo; conditions: 7 consecutive days
# Description: Next, the efficacy of Astarabine® in vivo was studied on a human leukemia (Molt-4 and CCRF-CEM cells) hollow fiber model transplanted in nude mice. Astarabine® was injected at doses of 6.25 mg/mouse/day and 25 mg/mouse/day intraperitoneally (IP), daily, for 7 consecutive days; cytarabine was injected at a dose of 1.5 mg/mouse/day. Leukemia cell growth was measured using the MTT assay as described in Example 1 herein above.
# AML and ALL patients = assay: Phase I/IIa open-label clinical study in AML and ALL patients; assay type: in vivo, human
# Description: Phase I/IIa, open-label, uncontrolled, single-center study enrolled patients of 18 or more years of age with relapsed or refractory acute leukemia or those unfit for intensive therapy, as judged by the treating physician. The study was approved by the Rambam IRB (approval #0384-11).
# Patients were enrolled into 4 Astarabine® escalating dose cohorts, each included 3 patients. Treatment was administered as a 1-hour single daily infusion for 6 consecutive days.
# Astarabine® doses for each infusion: • For age ≤50 years: 0.5 g/m^2, 1.5 g/m^2, 3 g/m^2, 4.5 g/m^2 • For age >50 years: 0.3 g/m^2, 0.8 g/m^2, 1.5 g/m^2, 2.3 g/m^2 Results
# [3] = tested on: human leukemia cell lines; assay: Astarabine metabolite assay in human leukemia cell lines; assay type: cell-based
# [4] = patient 1, Refractory AML, 0.3 gr/m^2/day
# [5] = patient 2, Refractory AML, 0.3 gr/m^2/day
# [6] = patient 3, Refractory AML, 0.5 gr/m^2/day
# [7] = patient 4, Secondary AML, 0.8 gr/m^2/day
# [8] = patient 5, Secondary AML, 0.8 gr/m^2/day
# [9] = patient 6, Refractory AML, 0.8 gr/m^2/day
# [10] = patient 8, Secondary AML, 1.5 gr/m^2/day
# [11] = patient 9, Secondary AML, 1.5 gr/m^2/day
# [12] = patient 10, Relapsed AML, 2.3 gr/m^2/day
smiles,measurement,setting,value
N[C@@H](CC(=O)Nc1ccn([C@@H]2O[C@H](CO)[C@@H](O)[C@@H]2O)c(=O)n1)C(=O)O [Astarabine®],IC50,RPMI8226 (Human myeloma),33.4 to 144 µM
same,MTD at 7 days,"[1]; IRC, mouse, in vivo, single dose IP",8270 mg/kg
same,Blood samples (hematology and biochemistry),"[1]; single IP dose 8271 mg/kg, after 7 days of recovery",normal results
same,"Necropsy, tissues","[1]; single IP dose 1428 to 8271 mg/kg, all mice","normal, with no macroscopic findings"
same,MTD at 14 days,"[2]; both sexes, IRC, mouse, in vivo, single IV administration, evaluated for 14 days",8000 mg/kg
same,Drug dependent death,[2]; single IV dose 8000 mg/kg,no drug dependent death
same,Inhibition of growth of Molt-4 cells,Molt-4 cells; 6.25 mg/mouse/day IP,76.9%
same,Inhibition of growth of Molt-4 cells,Molt-4 cells; 25 mg/mouse/day IP,82.8%
same,Adverse effects during or post therapy,"AML and ALL patients; 10 patients, 0.3-2.3 g/m^2/day, 1-hour daily infusion for 6 days, apart from neutropenic fever",No significant adverse effects
same,Safety and tolerability,AML and ALL patients; even for patients of 80 or more years of age,safe and very well tolerated
same,Follow-up in months,AML and ALL patients; [4],3 months
same,BM blasts Day 0,"AML and ALL patients; patient 1, Refractory AML, 0.3 gr/m^2/day x 6 days infusion",100%
same,BM blasts Day 14,AML and ALL patients; [4],90%
same,BM blasts Day 30,AML and ALL patients; [4],83%
same,Follow-up in months,AML and ALL patients; [5],2 months
same,BM blasts Day 0,AML and ALL patients; [5],100%
same,BM blasts Day 14,AML and ALL patients; [5],64%
same,BM blasts Day 30,AML and ALL patients; [5],70%
same,Follow-up in months,AML and ALL patients; [6],6 months
same,BM blasts Day 0,AML and ALL patients; [6],90%
same,BM blasts Day 14,AML and ALL patients; [6],37%
same,BM blasts Day 30,AML and ALL patients; [6],60%
same,Follow-up in months,AML and ALL patients; [7],4 months
same,BM blasts Day 14,AML and ALL patients; [7],39%
same,BM blasts Day 30,AML and ALL patients; [7],63%
same,Follow-up in months,AML and ALL patients; [8],9 months
same,BM blasts Day 0,AML and ALL patients; [8],80%
same,BM blasts Day 14,AML and ALL patients; [8],5%
same,BM blasts Day 30,AML and ALL patients; [8],0%
same,Follow-up in months,AML and ALL patients; [9],1 months
same,BM blasts Day 0,AML and ALL patients; [9],85%
same,BM blasts Day 14,AML and ALL patients; [9],100%
same,BM blasts Day 30,AML and ALL patients; [9],100%
same,Follow-up in months,"AML and ALL patients; patient 7, ALL, 1.5 gr/m^2/day",7 months
same,BM blasts Day 0,"AML and ALL patients; patient 7, ALL, 1.5 gr/m^2/day",89%
same,BM blasts Day 14,"AML and ALL patients; patient 7, ALL, 1.5 gr/m^2/day",3%
same,BM blasts Day 30,"AML and ALL patients; patient 7, ALL, 1.5 gr/m^2/day",0.2%
same,Follow-up in months,AML and ALL patients; [10],6 months
same,BM blasts Day 0,AML and ALL patients; [10],63%
same,BM blasts Day 14,AML and ALL patients; [10],80%
same,BM blasts Day 30,AML and ALL patients; [10],8%
same,Follow-up in months,AML and ALL patients; [11],1 months
same,Outcome,AML and ALL patients; [11],Died
same,BM blasts Day 0,AML and ALL patients; [11],100%
same,Follow-up in months,AML and ALL patients; [12],1 months
same,Outcome,AML and ALL patients; [12],Died
same,BM blasts Day 0,AML and ALL patients; [12],100%
same,Remission,"AML and ALL patients; patients having acute leukemia, 0.3-2.3 g/m^2/day for 6 days",three out of ten patients
same,Safety and tolerability,"AML and ALL patients; patients of 75 or more years of age having AML or ALL, daily dose of about 2 g/m^2 or higher",safe and well tolerated
same,Metabolites detected in cells,[3],detected free cytarabine metabolites
